pKi: −log10 of the molar value.
What was measured:
in vitro [1] = conditions: rat, plasma
Description: Stability in rat plasma assessed as half-life at 5 uM incubated for 120 mins by LC-MS/MS analysis

in vitro [2] = conditions: rat, hepatocytes
Description: Metabolic stability in rat hepatocytes assessed as clearance measured per 10^6 cells at 1 uM incubated for 90 mins by LC-MS/MS analysis

[3] = target: Beta-2 adrenergic receptor (Homo sapiens, UniProt P07550)
Description: Displacement of [125I]-Cyanopindolol from human beta2 adrenoceptor assessed as inhibition constant incubated for 1 hrs by Microbeta scintillation counter

in vitro [4] = conditions: guinea pig, plasma
Description: Stability in guinea pig plasma assessed as half-life at 5 uM incubated for 120 mins by LC-MS/MS analysis

in vitro [5] = conditions: human, plasma
Description: Stability in human plasma assessed as half-life at 5 uM incubated for 120 mins by LC-MS/MS analysis

in vitro [6] = conditions: human, hepatocytes
Description: Metabolic stability in human hepatocytes assessed as clearance measured per 10^6 cells at 1 uM incubated for 90 mins by LC-MS/MS analysis

[7] = target: Muscarinic acetylcholine receptor M3 (Homo sapiens, UniProt P20309)
Sequence of Muscarinic acetylcholine receptor M3 (P20309 whole entry): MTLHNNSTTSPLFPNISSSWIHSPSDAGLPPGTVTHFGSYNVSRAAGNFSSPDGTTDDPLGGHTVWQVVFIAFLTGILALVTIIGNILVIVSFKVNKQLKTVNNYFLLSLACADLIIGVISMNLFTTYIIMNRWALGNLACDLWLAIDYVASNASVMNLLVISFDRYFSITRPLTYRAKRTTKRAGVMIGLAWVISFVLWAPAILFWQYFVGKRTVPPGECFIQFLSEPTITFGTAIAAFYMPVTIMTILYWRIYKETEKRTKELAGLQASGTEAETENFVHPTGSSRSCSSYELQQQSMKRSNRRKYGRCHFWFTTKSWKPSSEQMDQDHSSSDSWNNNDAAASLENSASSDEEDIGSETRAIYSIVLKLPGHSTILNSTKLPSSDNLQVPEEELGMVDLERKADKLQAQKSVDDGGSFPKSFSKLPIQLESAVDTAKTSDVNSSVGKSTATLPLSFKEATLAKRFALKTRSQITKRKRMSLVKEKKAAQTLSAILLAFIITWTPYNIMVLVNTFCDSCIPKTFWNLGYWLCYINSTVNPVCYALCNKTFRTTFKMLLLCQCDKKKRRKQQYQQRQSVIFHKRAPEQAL
Description: Displacement of Scopolamine methyl chloride,[N-methyl-3H] from human muscarinic M3 receptor assessed as inhibition constant incubated for 2 hrs by Microbeta scintillation counter

Sequence of Beta-2 adrenergic receptor (P07550 whole entry): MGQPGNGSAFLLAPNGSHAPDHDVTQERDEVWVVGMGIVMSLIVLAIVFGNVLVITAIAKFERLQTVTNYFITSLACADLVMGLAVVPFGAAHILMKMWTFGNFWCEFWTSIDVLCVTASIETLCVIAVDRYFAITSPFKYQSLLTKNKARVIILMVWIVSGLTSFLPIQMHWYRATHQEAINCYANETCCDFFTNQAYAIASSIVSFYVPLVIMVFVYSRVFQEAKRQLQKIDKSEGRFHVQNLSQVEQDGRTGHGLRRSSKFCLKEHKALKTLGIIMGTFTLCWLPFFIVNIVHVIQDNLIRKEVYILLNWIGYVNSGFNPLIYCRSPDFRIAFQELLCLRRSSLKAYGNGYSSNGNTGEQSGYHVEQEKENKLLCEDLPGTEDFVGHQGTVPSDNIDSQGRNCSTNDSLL

SMILES	half-life at 2 h, 5 µM (in vitro [1]) [min]	hepatocyte CLint at 1.5 h, 1 µM (in vitro [2]) [µL/min/1e6 cells]	pKi [3]	half-life at 2 h, 5 µM (in vitro [4]) [min]	half-life at 2 h, 5 µM (in vitro [5]) [min]	hepatocyte CLint at 1.5 h, 1 µM (in vitro [6]) [µL/min/1e6 cells]	pKi [7]
COc1cc(C(=O)NCCCOc2cccc([C@](O)(C(=O)O[C@@H]3CCCN(C)C3)c3ccccc3)c2)c(F)cc1CNC[C@H](O)c1ccc(O)c2[nH]c(=O)ccc12	87	40	10.80	> 150	> 150	7	
O=C(NCCCOc1cccc([C@](O)(C(=O)O[C@@H]2CCN(Cc3ccccc3)C2)c2ccccc2)c1)c1ccc(CNC[C@H](O)c2ccc(O)c3[nH]c(=O)ccc23)cc1	5	69	9.80	37	> 150	23	
CN1CCC[C@@H](OC(=O)[C@](O)(c2ccccc2)c2cccc(OCCCNC(=O)c3cnc(CNC[C@H](O)c4ccc(O)c5[nH]c(=O)ccc45)nc3)c2)C1.O=CO	13	33	10.60	8	> 150	< 2	
CN1CCC(COC(=O)[C@](O)(c2ccccc2)c2cccc(OCCCNC(=O)c3ccc(CNC[C@H](O)c4ccc(O)c5[nH]c(=O)ccc45)cc3)c2)CC1	115	15	10.40	11	> 150	< 2	9.30
O=C(NCCCCNC[C@H](O)c1ccc(O)c2[nH]c(=O)ccc12)c1ccc(C(=O)N2CCC(C(=O)O[C@H]3CN4CCC3CC4)(c3ccccc3)CC2)cc1			9.20				8.80
CN1CCC[C@H](OC(=O)[C@](O)(c2ccccc2)c2cccc(OCCCNC(=O)c3ccc(CNC[C@H](O)c4ccc(O)c5[nH]c(=O)ccc45)cc3)c2)C1.O=CO.O=CO	8	52	10.60	51	> 150	5	
O=C(NCCCOc1cccc([C@](O)(C(=O)O[C@H]2CCN(Cc3ccccc3)C2)c2ccccc2)c1)c1ccc(CNC[C@H](O)c2ccc(O)c3[nH]c(=O)ccc23)cc1	15	71	9.40	12	> 150	22	
O=C(NCCCOc1cccc([C@](O)(C(=O)OC[C@H]2CCN(Cc3ccccc3)C2)c2ccccc2)c1)c1ccc(CNC[C@H](O)c2ccc(O)c3[nH]c(=O)ccc23)cc1	32	38	9.90	56	> 128	7	
O=C(NCCCOc1cccc([C@](O)(C(=O)OC2CCN(Cc3ccccc3)CC2)c2ccccc2)c1)c1ccc(CNC[C@H](O)c2ccc(O)c3[nH]c(=O)ccc23)cc1	135	64	10.30	8	> 150	12	
O=C(c1ccc(CNC[C@H](O)c2ccc(O)c3[nH]c(=O)ccc23)cc1)N1CC(COc2cccc([C@](O)(C(=O)OCC3CCN(Cc4ccccc4)CC3)c3ccccc3)c2)C1	50	22	9.00	19	> 150	16	8.90
CN1CCC(COC(=O)[C@](O)(c2ccccc2)c2cccc(-c3ccc(CNC(=O)c4ccc(CNC[C@H](O)c5ccc(O)c6[nH]c(=O)ccc56)cc4)s3)c2)CC1	88	21	9.40	48	> 150	27	8.60
COc1cc(C(=O)NCCCOc2cccc([C@](O)(C(=O)O[C@@H]3CCCN(C)C3)c3ccccc3)c2)c(Cl)cc1CNC[C@H](O)c1ccc(O)c2[nH]c(=O)ccc12	54	36	10.60	133	> 150	6	
COc1cc(C(=O)NCCCOc2cccc([C@](O)(C(=O)O[C@@H]3CCCN(C)C3)c3ccccc3)c2)ccc1CNC[C@H](O)c1ccc(O)c2[nH]c(=O)ccc12	17	29	10.80	112	> 150	4	
O=C(NCCCOc1cccc([C@](O)(C(=O)OCC2CCN(C3CCC3)CC2)c2ccccc2)c1)c1ccc(CNC[C@H](O)c2ccc(O)c3[nH]c(=O)ccc23)cc1	19	38	10.60	119	> 150	6	9.00
COc1cc(CNC[C@H](O)c2ccc(O)c3[nH]c(=O)ccc23)c(Cl)cc1C(=O)NCCCOc1cccc([C@](O)(C(=O)O[C@@H]2CCCN(C)C2)c2ccccc2)c1	130	66	10.00	> 150	> 150	7	
COc1cc(C(=O)N2CCC(c3cccc([C@](O)(C(=O)OCC4CCN(Cc5ccccc5)CC4)c4ccccc4)c3)CC2)ccc1CNC[C@H](O)c1ccc(O)c2[nH]c(=O)ccc12	> 150	29	9.30	35	> 150	28	9.20
O=C(c1ccc(OCc2ccc(CNC[C@H](O)c3ccc(O)c4[nH]c(=O)ccc34)cc2)cc1)N1CC(C(=O)OCC2CCN(Cc3ccccc3)CC2)(c2ccccc2)C1			9.60				8.10
CN1CCC[C@@H](OC(=O)[C@](O)(c2ccccc2)c2cccc(OCCCNC(=O)c3ccc(CNC[C@H](O)c4ccc(O)c5[nH]c(=O)ccc45)nc3)c2)C1.O=CO.O=CO	17	20	10.60	> 150	> 150	< 2	
CN1CCC(COC(=O)[C@@](O)(c2ccccc2)c2cccc(-c3ccc(CNC(=O)c4ccc(CNC[C@H](O)c5ccc(O)c6[nH]c(=O)ccc56)cc4)s3)c2)CC1	> 150	13	9.00	9	> 150	3	9.80
O=C(NCCCOc1cccc([C@](O)(C(=O)O[C@H]2CCCN(Cc3ccccc3)C2)c2ccccc2)c1)c1ccc(CNC[C@H](O)c2ccc(O)c3[nH]c(=O)ccc23)cc1.O=CO	11	53	9.30	15	> 150	19	
O=C(NCCCOc1cccc([C@](O)(C(=O)O[C@@H]2CCCN(Cc3ccccc3)C2)c2ccccc2)c1)c1ccc(CNC[C@H](O)c2ccc(O)c3[nH]c(=O)ccc23)cc1.O=CO	5	78	9.50	> 150	> 150	20	
O=C(NCCCOc1cccc([C@](O)(C(=O)OC[C@@H]2CCN(Cc3ccccc3)C2)c2ccccc2)c1)c1ccc(CNC[C@H](O)c2ccc(O)c3[nH]c(=O)ccc23)cc1	15	37	10.10	58	> 150	5	
O=C(NCCCOc1cccc([C@](O)(C(=O)OCC2CCN(C3CCCC3)CC2)c2ccccc2)c1)c1ccc(CNC[C@H](O)c2ccc(O)c3[nH]c(=O)ccc23)cc1	14	51	10.70	139	> 150	5	8.80
Cc1cc(C(=O)NCCCOc2cccc([C@](O)(C(=O)O[C@@H]3CCCN(C)C3)c3ccccc3)c2)c(C)cc1CNC[C@H](O)c1ccc(O)c2[nH]c(=O)ccc12	30	49	10.80	142	> 150	3	
CN1CCC[C@@H](OC(=O)[C@](O)(c2ccccc2)c2cccc(OCCCNC(=O)c3cccc(CNC[C@H](O)c4ccc(O)c5[nH]c(=O)ccc45)c3)c2)C1	8	28	8.70	98	> 150	5	
COc1cc(C(=O)NCCCOc2cccc([C@](O)(C(=O)O[C@@H]3CCCN(C)C3)c3ccccc3)c2)c(OC)cc1CNC[C@H](O)c1ccc(O)c2[nH]c(=O)ccc12	> 150	61	10.20	> 150	> 150	6	
CN1CCC[C@@H](OC(=O)[C@](O)(c2ccccc2)c2cccc(OCCCNC(=O)c3ccc(CNC[C@H](O)c4ccc(O)c5[nH]c(=O)ccc45)c(F)c3)c2)C1.O=CO	15	54	10.90	84	> 150	6	
O=C(NCCCCNC[C@H](O)c1ccc(O)c2[nH]c(=O)ccc12)c1ccc(C(=O)NC2(C(=O)O[C@H]3CN4CCC3CC4)CCc3ccccc32)cc1 (single isomer, unassigned)			9.40				< 7.30
O=C(NCCCCNC[C@H](O)c1ccc(O)c2[nH]c(=O)ccc12)c1cccc(C(=O)NC2(C(=O)O[C@H]3CN4CCC3CC4)CCc3ccccc32)c1 (single isomer, unassigned)			8.80				7.90

Reference: ChEMBL document CHEMBL5500396, “Discovery, Multiparametric Optimization, and Solid-State Driven Identification of CHF-6550, a Novel Soft Dual Pharmacology Muscarinic Antagonist and β2 Agonist (MABA) for the Inhaled Treatment of Respiratory Diseases” (J Med Chem, 2024)
